Laboratory results reported in ChEMBL document CHEMBL1129684, “New steroidal diazo ketones as potential photoaffinity labeling reagents for the mineralocorticoid receptor: synthesis and biological activities” (J Med Chem, 1996).

Assays:
[1] = molecular target: T1, Mineralocorticoid receptor (Homo sapiens) (UniProt P08235); conditions: CV-1
T1 sequence (whole entry): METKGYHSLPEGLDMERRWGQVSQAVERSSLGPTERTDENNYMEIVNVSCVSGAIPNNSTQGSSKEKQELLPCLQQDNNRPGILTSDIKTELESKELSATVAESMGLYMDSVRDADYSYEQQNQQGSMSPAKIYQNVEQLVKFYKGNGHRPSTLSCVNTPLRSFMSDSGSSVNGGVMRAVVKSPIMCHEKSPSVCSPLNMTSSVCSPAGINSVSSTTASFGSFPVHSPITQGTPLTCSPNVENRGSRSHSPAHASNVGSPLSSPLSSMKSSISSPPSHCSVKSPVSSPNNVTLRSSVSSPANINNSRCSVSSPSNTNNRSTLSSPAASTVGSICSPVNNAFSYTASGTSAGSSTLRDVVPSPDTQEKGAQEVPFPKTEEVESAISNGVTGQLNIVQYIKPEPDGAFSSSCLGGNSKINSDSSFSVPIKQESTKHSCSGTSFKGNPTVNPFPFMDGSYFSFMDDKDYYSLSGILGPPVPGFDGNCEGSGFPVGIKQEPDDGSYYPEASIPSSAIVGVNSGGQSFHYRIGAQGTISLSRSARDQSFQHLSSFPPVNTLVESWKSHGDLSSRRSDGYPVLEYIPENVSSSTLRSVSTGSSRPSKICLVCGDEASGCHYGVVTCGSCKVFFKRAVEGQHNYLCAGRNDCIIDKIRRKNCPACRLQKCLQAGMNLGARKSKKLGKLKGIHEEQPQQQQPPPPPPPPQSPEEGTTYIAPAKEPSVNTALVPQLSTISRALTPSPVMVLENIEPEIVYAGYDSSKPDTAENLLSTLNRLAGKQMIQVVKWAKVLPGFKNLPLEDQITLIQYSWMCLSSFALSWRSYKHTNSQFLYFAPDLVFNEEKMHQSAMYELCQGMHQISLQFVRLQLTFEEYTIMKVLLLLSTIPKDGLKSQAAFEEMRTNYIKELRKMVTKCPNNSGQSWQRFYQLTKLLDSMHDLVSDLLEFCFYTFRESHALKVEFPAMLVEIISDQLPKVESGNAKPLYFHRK
Description: Transcriptional activation activity in CV-1 cells expressing mineralocorticoid receptor

[2] = molecular target: T2, Mineralocorticoid receptor (Homo sapiens, UniProt P08235); assay: Affinity for recombinant Mineralocorticoid receptor; conditions: read-out: Kd app
T2 sequence (P08235 whole entry): T1 sequence (whole entry)

[3] = molecular target: T2, Mineralocorticoid receptor; assay: Inhibition of 10e-9 M aldosterone activity in CV-1 cells expressing mineralocorticoid receptor; assay type: functional, cell-based

ED50 [1] [µM] | Kd [2] [µM] | IC50 [3] [µM] | Structure (SMILES)
0.006 | 0.00074 |  | CC12CCC(=O)C=C1CCC1C2CCC2(C)C(C(=O)C=[N+]=[N-])CCC12 (stereo unspecified)
 | 0.02 | 0.9 | C[C@@H](O)C1CC[C@H]2[C@@H]3CCC4=CC(=O)CCC4(C)[C@H]3CCC12C(=O)C=[N+]=[N-] (stereo partly specified)
 | 0.02 | 0.7 | CC(=O)C1CC[C@H]2[C@@H]3CCC4=CC(=O)CCC4(C)[C@H]3CCC12C(=O)[CH-][N+]#N (stereo partly specified)
